Data published in ChEMBL document CHEMBL1201862, “PubChem BioAssay data set” (2004).
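Compound exposure: 48 hours, 5 concentrations, 96-well plates. Abbreviation: GI50, concentration required for 50% inhibition of growth.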 The source made the active and inactive calls. Rule as the data show it: active = GI50 up to about 1.1 µM and inactive = higher.

Assays:
Assay in all cases: NCI-60 cell line screen, 48 h
CCRF-CEM = test system: CCRF-CEM
SF-295 = test system: SF-295
KM12 = test system: KM12
TK-10 = test system: TK-10
U-251 = test system: U-251
NCI-H226 = test system: NCI-H226
EKVX = test system: EKVX
ACHN = test system: ACHN
OVCAR-3 = test system: OVCAR-3
HL-60 = test system: HL-60
SR = test system: SR
UACC-62 = test system: UACC-62
SK-MEL-28 = test system: SK-MEL-28
SK-OV-3 = test system: SK-OV-3
NCI-H23 = test system: NCI-H23
HCT-116 = test system: HCT-116
CAKI-1 = test system: CAKI-1
SF-268 = test system: SF-268
Hs-578T = test system: Hs-578T
MCF7 = test system: MCF7

Structure (SMILES)	GI50 (CCRF-CEM)	GI50 (SF-295)	GI50 (KM12)	GI50 (TK-10)	GI50 (U-251)	GI50 (NCI-H226)	GI50 (EKVX)	GI50 (ACHN)	GI50 (OVCAR-3)	GI50 (HL-60)	GI50 (SR)	GI50 (UACC-62)	GI50 (SK-MEL-28)	GI50 (SK-OV-3)	GI50 (NCI-H23)	GI50 (HCT-116)	GI50 (CAKI-1)	GI50 (SF-268)	GI50 (Hs-578T)	GI50 (MCF7)
COc1ccc(C(=O)CC(=O)C(=O)Nc2ccc(C)c(C)c2)cc1	26.5 µM (inactive)	> 100 µM (inactive)	> 100 µM (inactive)	> 100 µM (inactive)	63.4 µM (inactive)	> 100 µM (inactive)	> 100 µM (inactive)	> 100 µM (inactive)	> 100 µM (inactive)	10.5 µM (inactive)	> 100 µM (inactive)	> 95.5 µM (inactive)	> 100 µM (inactive)	> 100 µM (inactive)	> 100 µM (inactive)	43.8 µM (inactive)	> 100 µM (inactive)	56.2 µM (inactive)		
N#CC[N+]1(Cc2ccccn2)CCCC1.O=S(=O)([O-])c1ccccc1		> 100 µM (inactive)	> 100 µM (inactive)	> 100 µM (inactive)	> 100 µM (inactive)	> 100 µM (inactive)	> 100 µM (inactive)	> 100 µM (inactive)	> 100 µM (inactive)	70.6 µM (inactive)		> 100 µM (inactive)	> 100 µM (inactive)	> 100 µM (inactive)	> 100 µM (inactive)	> 100 µM (inactive)	> 100 µM (inactive)	> 100 µM (inactive)	> 100 µM (inactive)	> 100 µM (inactive)
O=C(c1ccccc1)c1nnn(Cc2ccccc2Cn2nnc(C(=O)c3ccccc3)c2C(=O)c2ccccc2)c1C(=O)c1ccccc1	> 100 µM (inactive)	> 100 µM (inactive)	> 100 µM (inactive)	> 100 µM (inactive)	> 100 µM (inactive)	47.4 µM (inactive)	47.6 µM (inactive)	> 100 µM (inactive)	> 100 µM (inactive)	> 100 µM (inactive)	> 100 µM (inactive)	> 100 µM (inactive)	> 100 µM (inactive)	> 100 µM (inactive)	> 100 µM (inactive)	> 100 µM (inactive)	> 100 µM (inactive)	> 100 µM (inactive)		
O=C(c1ccccc1)c1ccc(N2C(=O)/C(=C/c3ccccc3S)N=C2c2ccccc2)c(N2C(=O)/C(=C/c3ccccc3S)N=C2c2ccccc2)c1	22.2 µM (inactive)	46.6 µM (inactive)	33.3 µM (inactive)	> 100 µM (inactive)	25.2 µM (inactive)		> 100 µM (inactive)	60.4 µM (inactive)	20.1 µM (inactive)	11.8 µM (inactive)	30.5 µM (inactive)	49.4 µM (inactive)	> 100 µM (inactive)	> 100 µM (inactive)		66.4 µM (inactive)	> 100 µM (inactive)	39.9 µM (inactive)	35 µM (inactive)	45.6 µM (inactive)
O=c1c(Nc2ccccc2)cn(CCOc2ccccc2)c(=O)n1CCOc1ccccc1	> 100 µM (inactive)	52.5 µM (inactive)	> 100 µM (inactive)		> 100 µM (inactive)		33.1 µM (inactive)	37.7 µM (inactive)	35.9 µM (inactive)	> 100 µM (inactive)	> 100 µM (inactive)	41.2 µM (inactive)	> 100 µM (inactive)		33.4 µM (inactive)	> 100 µM (inactive)	81.7 µM (inactive)	16.5 µM (inactive)	17.6 µM (inactive)	> 100 µM (inactive)
CCCCCCC(=O)CC(=O)C(=O)Nc1ccccc1C	> 100 µM (inactive)	> 100 µM (inactive)	> 100 µM (inactive)	> 100 µM (inactive)	> 89.1 µM (inactive)	> 100 µM (inactive)	> 100 µM (inactive)	> 100 µM (inactive)	> 100 µM (inactive)	> 100 µM (inactive)	> 100 µM (inactive)	> 100 µM (inactive)	> 100 µM (inactive)	> 100 µM (inactive)	> 100 µM (inactive)	> 100 µM (inactive)	> 100 µM (inactive)	> 65.6 µM (inactive)		
COc1ccc(-c2c(C3=NCCN3)nnn2-c2ccccc2)cc1	> 100 µM (inactive)	> 100 µM (inactive)	> 100 µM (inactive)	> 100 µM (inactive)	> 100 µM (inactive)	> 100 µM (inactive)	> 100 µM (inactive)	> 100 µM (inactive)	> 100 µM (inactive)	67.3 µM (inactive)	89.9 µM (inactive)	> 100 µM (inactive)	> 100 µM (inactive)	> 100 µM (inactive)	> 100 µM (inactive)	99.1 µM (inactive)	> 100 µM (inactive)	> 100 µM (inactive)		
Cc1ncc(CO)c(CN)c1O	> 100 µM (inactive)	> 100 µM (inactive)	> 100 µM (inactive)	> 100 µM (inactive)	> 100 µM (inactive)	> 100 µM (inactive)	> 100 µM (inactive)	> 100 µM (inactive)	> 100 µM (inactive)	41.9 µM (inactive)		> 100 µM (inactive)	> 100 µM (inactive)	> 100 µM (inactive)	> 100 µM (inactive)	> 100 µM (inactive)	> 100 µM (inactive)	> 100 µM (inactive)	> 100 µM (inactive)	> 100 µM (inactive)
CSc1nnc(SC)nn1	1.81 µM (inactive)	18.1 µM (inactive)	15.3 µM (inactive)	12.6 µM (inactive)	20.6 µM (inactive)	32.4 µM (inactive)	16.6 µM (inactive)	16.8 µM (inactive)	16.2 µM (inactive)	3.65 µM (inactive)		18.2 µM (inactive)		21.4 µM (inactive)	20.8 µM (inactive)	11 µM (inactive)	16.9 µM (inactive)	15.9 µM (inactive)	27.2 µM (inactive)	17 µM (inactive)
CCCCCCCCCCCCNC(C)=O	14.4 µM (inactive)	17.7 µM (inactive)	17.8 µM (inactive)	13.7 µM (inactive)	15.4 µM (inactive)	18.7 µM (inactive)	11.4 µM (inactive)	23.2 µM (inactive)	17.7 µM (inactive)			15.6 µM (inactive)	17.6 µM (inactive)	15.7 µM (inactive)	15.7 µM (inactive)	17.9 µM (inactive)	17 µM (inactive)	14.3 µM (inactive)	14.4 µM (inactive)	17.1 µM (inactive)
[O-]c1c[n+](CCCC[n+]2cc([O-])on2)no1	> 100 µM (inactive)	> 100 µM (inactive)	> 100 µM (inactive)	> 100 µM (inactive)	> 100 µM (inactive)		> 100 µM (inactive)	> 100 µM (inactive)	> 100 µM (inactive)	> 100 µM (inactive)		> 100 µM (inactive)	> 100 µM (inactive)	> 100 µM (inactive)	> 100 µM (inactive)	> 100 µM (inactive)	> 100 µM (inactive)	> 100 µM (inactive)	> 100 µM (inactive)	> 100 µM (inactive)
CC(C)(Oc1ccc(/C=C/C(=O)c2ccccc2)cc1)C(=O)Nc1c(Cl)cccc1Cl	15 µM (inactive)	> 10 µM (inactive)	4.07 µM (inactive)	> 10 µM (inactive)	7.14 µM (inactive)	> 10 µM (inactive)	> 10 µM (inactive)	> 10 µM (inactive)	6.95 µM (inactive)	14.7 µM (inactive)	3.48 µM (inactive)	> 10 µM (inactive)	> 10 µM (inactive)	> 10 µM (inactive)	7.33 µM (inactive)	> 10 µM (inactive)	> 10 µM (inactive)	> 10 µM (inactive)		
COC1/C=C/C(C)C(C(C)C(OC)C(C)CCC(=O)C(C)C(CC(=O)O)OC)OC(=O)/C=C/C=C(\C)CC(OC)C(OC)C2=CC(=O)O[C@@H](C(C)C(OC)CC(OC)/C=C/C(C)C(O)C1)[C@H]2O (some centres undefined)	0.0484 µM (active)	0.0968 µM (active)	0.0512 µM (active)	0.0703 µM (active)	0.0416 µM (active)	0.0336 µM (active)	0.0474 µM (active)	0.0473 µM (active)	0.188 µM (active)	0.0237 µM (active)	0.0622 µM (active)	0.0479 µM (active)	0.0212 µM (active)	0.0879 µM (active)	0.164 µM (active)	0.00714 µM (active)	0.033 µM (active)	0.046 µM (active)		0.0715 µM (active)
O=[N+]([O-])c1ccc(-n2nnc(C3=NCCN3)c2-c2ccc(Cl)cc2)cc1	> 100 µM (inactive)	> 100 µM (inactive)	> 100 µM (inactive)	69 µM (inactive)	> 100 µM (inactive)	> 100 µM (inactive)	> 100 µM (inactive)	> 100 µM (inactive)	> 100 µM (inactive)	> 100 µM (inactive)	27.2 µM (inactive)	> 100 µM (inactive)	> 100 µM (inactive)	> 100 µM (inactive)	> 100 µM (inactive)	55.8 µM (inactive)	> 100 µM (inactive)	73.3 µM (inactive)		
CC(=O)Nc1ccc(S(=O)(=O)Nc2nnc(S(N)(=O)=O)s2)cc1		> 100 µM (inactive)	> 100 µM (inactive)	> 100 µM (inactive)	> 100 µM (inactive)	> 100 µM (inactive)	> 100 µM (inactive)	> 100 µM (inactive)		> 100 µM (inactive)	> 100 µM (inactive)	> 100 µM (inactive)		> 100 µM (inactive)	> 100 µM (inactive)	> 100 µM (inactive)	> 100 µM (inactive)	> 100 µM (inactive)		> 100 µM (inactive)
